# Laboratory results as given in patent US20260183302A1, “PDK1 REGULATORY COMPOUND AND COMPOSITION CONTAINING THE SAME” (PROVIBIO CO., LTD., priority 2024, published 2026).
# How the values were obtained:
# [1] = tested on: Human Colorectal Carcinoma cell line, HCT-116; assay: Relative cell viability, HCT-116 (CCK-8); assay type: cell-based; details: 48 hours
# Protocol: (§1) Human-derived breast cancer cell line MCF-7, human-derived lung cancer cell line A549, human-derived colorectal cancer cell line HCT-116, human pancreatic cancer cell line AsPC-1, glioblastoma cell line A172, and melanoma cell line Malme-3M were obtained from the Korean Cell Bank. gastric cancer cell line SNU-719, and bladder cancer cell line T24 were cultured in RPMI-1640 medium containing 10% FBS.
# (§2) Following stabilization, the cells were harvested using Trypsin-EDTA treatment, centrifuged at 1,200 rpm for 3 minutes, the supernatant was removed, and the cells were resuspended in the same medium. They were then seeded into a 96-well plate (Costar 96-well cell culture plate, Corning) at 100 μL per well, and the conditions were adjusted as indicated in Table 5.
# (§3) The cells were cultured in a 5% CO2 incubator at 37° C. for 24 hours, and after stabilization of the cells, each plate was washed with 200 μL of PBS per well and treated with 50 μL of culture medium per well.
# (§4) After that, 10 μL of CCK-8 was added to each well, and the plate was incubated again at 37° C. in a 5% CO2 incubator for 2 hours.
# (§5) In other words, when the survival rate of untreated cells (DMSO) is set at 100%, the relative cell survival rate in each group treated with the drug at different concentrations is indicated.
# [2] = tested on: Human Bladder cancer cell, T24; assay: Relative cell viability, T24 (CCK-8); assay type: cell-based; details: 48 hours
# Protocol: as §1, §2
# (§6) The cells were cultured in a 5% CO2 incubator at 37° C. for 24 hours, and after stabilization of the cells, each plate was washed with 200 μL of PBS per well and treated with 50 μL of culture medium per well. […]
# as §4, §5
# [3] = tested on: T cells isolated from mouse spleens; assay: T cell proliferation inhibition (CFSE flow cytometry, anti-CD3/anti-CD28 stimulation); assay type: cell-based, C57BL/6 mice; details: three days
# Summary of the method: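 Splenic T cells from 7-week-old C57BL/6 mice, CFSE-labelled, 2× 10^5 cells/well, stimulated with anti-CD3 and anti-CD28 (0.5 μg/mL each). Compound at 10 nM-50 μM in triplicate for three days at 37 °C, 5% CO2; proliferation inhibition (%) derived by flow cytometry.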
# [4] = tested on: Human Osteosarcoma, Saos-2; assay: Relative cell viability, Saos-2 (CCK-8); assay type: cell-based
# Protocol: (§7) Human-derived head and neck cancer cell line Fadu and osteosarcoma cell line Saos-2 were cultured in MEM medium containing 10% FBS, 100 U/mL penicillin, and 100 μg/mL streptomycin.
# as §2, §6, §4, §5
# [5] = tested on: Human Head and Neck cancer, Fadu; assay: Relative cell viability, Fadu (CCK-8); assay type: cell-based; details: relative to untreated cells
# Protocol: as §7, §2, §3, §4, §5
# PDK1 = biological target: T1, PDK1 (Homo sapiens, UniProt O15530); assay: IC50 for inhibiting PDK1 kinase activity; assay type: biochemical
# T1 construct: purchased Promega V9681
# T1 sequence (O15530 1-556): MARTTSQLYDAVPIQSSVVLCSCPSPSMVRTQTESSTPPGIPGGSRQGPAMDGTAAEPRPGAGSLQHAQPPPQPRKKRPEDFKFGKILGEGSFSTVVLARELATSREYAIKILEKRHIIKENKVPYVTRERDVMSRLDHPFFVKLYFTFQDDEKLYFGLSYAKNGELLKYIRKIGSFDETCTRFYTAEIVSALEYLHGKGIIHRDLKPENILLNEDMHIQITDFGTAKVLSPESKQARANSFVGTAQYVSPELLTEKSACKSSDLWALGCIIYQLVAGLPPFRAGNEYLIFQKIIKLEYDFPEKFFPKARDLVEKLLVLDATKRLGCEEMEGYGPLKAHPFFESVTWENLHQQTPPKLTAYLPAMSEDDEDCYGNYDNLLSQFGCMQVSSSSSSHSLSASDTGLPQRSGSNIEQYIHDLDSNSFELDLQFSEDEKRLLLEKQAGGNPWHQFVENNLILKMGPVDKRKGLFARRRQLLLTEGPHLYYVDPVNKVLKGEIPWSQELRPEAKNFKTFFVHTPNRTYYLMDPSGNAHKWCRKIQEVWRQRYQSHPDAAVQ
# Protocol: Additionally, enzyme kinetics analysis was performed to quantitatively analyze the effect of the compounds of the present invention on the enzymatic activity of PDK1 (3-Phosphoinositide-dependent protein kinase-1) and to confirm the inhibition pattern.
# Prior to the analysis, the half-maximal inhibitory concentration (IC50) values of the compounds GO15F, GO86, and GO88 of the present invention for inhibiting PDK1 kinase activity were determined, and the results are shown in FIG. 4.
# [6] = tested on: Human Melanoma cancer cell, Malme-3M; assay: Relative cell viability, Malme-3M (CCK-8); assay type: cell-based; details: 48 hours
# Protocol: as §1, §2, §3, §4, §5
substance,measurement,setting,value
"12-[4-(2,2-dimethylmorpholin-4-yl)]dodecyl-N-(6-aminopurine-2-yl) carboxamide [Compound 11]",Relative cell viability (%),"[1]; HCT-116, 1 μM",21.36%
same,Relative cell viability (%),"[1]; HCT-116, 10 μM",24.91%
same,Relative cell viability (%),"[1]; HCT-116, 30 μM",24.78%
same,Relative cell viability (%),"[1]; HCT-116, 50 μM",25.26%
same,Relative cell viability (%),"[2]; T24, 1 μM",28.15%
same,Relative cell viability (%),"[2]; T24, 10 μM",31.17%
same,Relative cell viability (%),"[2]; T24, 30 μM",30.42%
same,Relative cell viability (%),"[2]; T24, 50 μM",29.34%
same,Proliferation inhibition rate (%),[3]; concentration 10 nM,−25.47%
same,Proliferation inhibition rate (%),[3]; concentration 100 nM,100.00%
same,Proliferation inhibition rate (%),[3]; concentration 1 μM,100.00%
same,Proliferation inhibition rate (%),[3]; concentration 10 μM,100.00%
same,Proliferation inhibition rate (%),[3]; concentration 30 μM,100.00%
same,Proliferation inhibition rate (%),[3]; concentration 50 μM,100.00%
same,Relative cell viability (%),"[4]; Saos-2, 10 μM, 48 hours",24.98%
same,Relative cell viability (%),"[4]; Saos-2, 30 μM, 48 hours",16.00%
same,Relative cell viability (%),"[4]; Saos-2, 50 μM, 48 hours",36.73%
same,Relative cell viability (%),"[4]; Saos-2, 48 hours",36.73%
same,Relative cell viability (%),[5]; concentration 1 μM,2.08%
same,Relative cell viability (%),[5]; concentration 10 μM,9.68%
same,Relative cell viability (%),[5]; concentration 30 μM,8.51%
same,Relative cell viability (%),[5]; concentration 50 μM,4.78%
same,IC50,PDK1,0.0113 µM
same,Relative cell viability (%),[6]; 1 μM,44.06%
same,Relative cell viability (%),[6]; 10 μM,37.40%
same,Relative cell viability (%),[6]; 30 μM,36.80%
same,Relative cell viability (%),[6]; 50 μM,38.87%
